According to ChEMBL document CHEMBL5500342, “Rational molecular design converting fascaplysin derivatives to potent broad-spectrum inhibitors against bacterial pathogens via targeting FtsZ” (Eur J Med Chem, 2024):
Values after ≈ are worked out from the molar mass of the structure shown.

What was measured:
Staphylococcus aureus [1] = test: Bactericidal activity against methicillin-resistant Staphylococcus aureus ATCC43300 incubated for 24 hrs by CLSI protocol based microbroth dilution method; format: functional
Bacillus subtilis = test: Antibacterial activity against Bacillus subtilis BNCC336690 assessed as inhibition of bacterial growth incubated for 18 hrs by CLSI protocol based microbroth dilution method; format: functional
Streptococcus pneumoniae = test: Antibacterial activity against Streptococcus pneumoniae ATCC49619 assessed as inhibition of bacterial growth incubated for 18 hrs by CLSI protocol based microbroth dilution method; format: functional
Escherichia coli [2] = test: Bactericidal activity against penicillin-susceptible Escherichia coli ATCC25922 incubated for 24 hrs by CLSI protocol based microbroth dilution method; format: functional
Staphylococcus aureus [3] = test: Antibacterial activity against methicillin-resistant Staphylococcus aureus ATCC43300 assessed as inhibition of bacterial growth incubated for 18 hrs by CLSI protocol based microbroth dilution method; format: functional
Escherichia coli [4] = test: Antibacterial activity against penicillin-susceptible Escherichia coli ATCC25922 assessed as inhibition of bacterial growth incubated for 18 hrs by CLSI protocol based microbroth dilution method; format: functional
Pseudomonas aeruginosa = test: Antibacterial activity against Pseudomonas aeruginosa BNCC337940 assessed as inhibition of bacterial growth incubated for 18 hrs by CLSI protocol based microbroth dilution method; format: functional
Salmonella enteritidis = test: Antibacterial activity against Salmonella enteritidis BNCC281091 assessed as inhibition of bacterial growth incubated for 18 hrs by CLSI protocol based microbroth dilution method; format: functional, Salmonella enterica subsp. enterica serovar Enteritidis; conditions: Salmonella enterica
Escherichia coli [5] = test: Antibacterial activity against penicillin-susceptible Escherichia coli ATCC25922; format: functional
Staphylococcus aureus [6] = test: Antibacterial activity against methicillin-resistant Staphylococcus aureus ATCC43300; format: functional
[7] = Selectivity ratio of MBC for bactericidal activity against penicillin-susceptible Escherichia coli ATCC25922 to MIC for antibacterial activity against penicillin-susceptible Escherichia coli ATCC25922; format: functional
Staphylococcus aureus [8] = test: Selectivity ratio of MBC for bactericidal activity against methicillin-resistant Staphylococcus aureus ATCC43300 to MIC for antibacterial activity against methicillin-resistant Staphylococcus aureus ATCC43300; format: functional

SMILES | MBC (Staphylococcus aureus [1]) [µg/mL] | MIC (Bacillus subtilis) [µg/mL] | MIC (Streptococcus pneumoniae) [µg/mL] | MBC (Escherichia coli [2]) [µg/mL] | MIC (Staphylococcus aureus [3]) [µg/mL] | MIC (Escherichia coli [4]) [µg/mL] | MIC (Pseudomonas aeruginosa) [µg/mL] | MIC (Salmonella enteritidis) [µg/mL] | MIC (Escherichia coli [5]) [µg/mL] | MIC (Staphylococcus aureus [6]) [µg/mL] | Selectivity ratio [7] | Selectivity ratio (Staphylococcus aureus [8])
CN[C@H](CC(C)C)C(=O)N[C@H]1C(=O)N[C@@H](CC(N)=O)C(=O)N[C@H]2C(=O)N[C@H]3C(=O)N[C@H](C(=O)N[C@H](C(=O)O)c4cc(O)cc(O)c4-c4cc3ccc4O)[C@H](O)c3ccc(c(Cl)c3)Oc3cc2cc(c3O[C@@H]2O[C@H](CO)[C@@H](O)[C@H](O)[C@H]2O[C@H]2C[C@](C)(N)[C@H](O)[C@H](C)O2)Oc2ccc(cc2Cl)[C@H]1O [VANCOMYCIN] | 1 (≈ 0.69 µM) | 0.39 (≈ 0.269 µM) | 1.56 (≈ 1.08 µM) | 3.12 (≈ 2.16 µM) |  |  |  |  |  |  |  | 
O=C1c2ccccc2-[n+]2ccc3c([nH]c4ccc(-c5cc(F)cc(F)c5)cc43)c21.[Cl-] |  | 0.195 | 0.195 |  | 3.12 | 12.5 | > 200 | > 200 |  |  |  | 
CCc1ccc(-c2ccc3[nH]c4c5[n+](ccc4c3c2)-c2ccccc2C5=O)cc1.[Cl-] |  | 0.195 | 0.195 |  | 1.56 | > 200 | > 200 | > 200 |  |  |  | 
Cc1ccc(-c2ccc3[nH]c4c5[n+](ccc4c3c2)-c2ccccc2C5=O)cc1C.[Cl-] |  | 0.195 | 0.78 |  | 6.25 | > 200 | > 200 | > 200 |  |  |  | 
O=C1c2ccccc2-[n+]2ccc3c([nH]c4ccc(-c5ccc(C(F)(F)F)cc5)cc43)c21.[Cl-] |  | 0.195 | 1.56 |  |  |  | > 200 | > 200 | 1.56 | 0.39 |  | 
O=C1c2ccccc2-[n+]2ccc3c([nH]c4ccccc43)c21 [FASCAPLYSIN] | 1.56 |  |  | 25 | 0.78 | 12.5 |  |  |  |  | 2 | 2
CCCc1ccc(-c2ccc3[nH]c4c5[n+](ccc4c3c2)-c2ccccc2C5=O)cc1.[Cl-] |  | 0.195 | 0.195 |  | 1.56 | > 200 | > 200 | > 200 |  |  |  | 
O=C1c2ccccc2-[n+]2ccc3c([nH]c4ccc(-c5ccccc5)cc43)c21.[Cl-] |  | 0.195 | 0.195 |  |  |  | 200 | > 200 | 3.12 | 0.78 |  | 
CCCCc1ccc(-c2ccc3[nH]c4c5[n+](ccc4c3c2)-c2ccccc2C5=O)cc1.[Cl-] |  | 1.56 | 0.78 |  | 6.25 | > 200 | > 200 | > 200 |  |  |  | 
Cc1ccc(-c2ccc3[nH]c4c5[n+](ccc4c3c2)-c2ccccc2C5=O)cc1.[Cl-] |  | 0.195 | 0.195 |  |  |  | > 200 | > 200 | 12.5 | 0.39 |  | 
O=C1c2ccccc2-[n+]2ccc3c([nH]c4ccc(-c5cccc(Cl)c5)cc43)c21.[Cl-] |  | 0.195 | 0.195 |  | 0.39 | 25 | > 200 | > 200 |  |  |  | 
Cc1cccc(-c2ccc3[nH]c4c5[n+](ccc4c3c2)-c2ccccc2C5=O)c1.[Cl-] |  | 0.195 | 0.195 |  | 0.39 | > 200 | > 200 | > 200 |  |  |  | 
COc1cccc(-c2ccc3[nH]c4c5[n+](ccc4c3c2)-c2ccccc2C5=O)c1.[Cl-] |  | 0.195 | 0.39 |  |  |  | > 200 | > 200 | 12.5 | 0.39 |  | 
O=C1c2ccccc2-[n+]2ccc3c([nH]c4ccc(-c5ccc(F)cc5)cc43)c21.[Cl-] |  | 0.195 | 0.195 |  |  |  | > 200 | > 200 | 6.25 | 1.56 |  | 
COc1ccc(-c2ccc3[nH]c4c5[n+](ccc4c3c2)-c2ccccc2C5=O)cc1.[Cl-] |  | 0.195 | 0.195 |  |  |  | > 200 | > 200 | 25 | 0.78 |  | 
O=C1c2ccccc2-[n+]2ccc3c([nH]c4ccc(-c5ccc(F)cc5F)cc43)c21.[Cl-] |  | 0.195 | 0.195 |  |  |  | > 200 | > 200 | 1.56 | 0.195 |  | 
O=C1c2ccccc2-[n+]2ccc3c([nH]c4ccc(-c5ccc(Cl)cc5)cc43)c21.[Cl-] |  | 0.195 | 0.39 |  | 1.56 | > 200 | > 200 | > 200 |  |  |  | 
